{
  "source": "ChEMBL document CHEMBL1138299",
  "about": "“Synthesis and antitumor activity of amine analogs of irofulven” (Bioorg Med Chem Lett, 2007)",
  "experiment": "Antitumor activity in MV522 cells assessed as inhibition of DNA synthesis after 2 hrs",
  "type": "functional, cell-based",
  "details": "Homo sapiens, MV522, 2 h",
  "data": [
    {"smiles": "CC1=C(CO)C2=C(C)C3(CC3)[C@@](C)(O)C(=O)C2=C1", "note": "[IROFULVEN]", "values": [
      {"measurement": "IC50", "result": 110, "unit": "nM"}
    ]},
    {"smiles": "CC1=C(C=O)C2=C(C)C3(CC3)[C@@](C)(O)C(=O)C2=C1", "values": [
      {"measurement": "IC50", "result": 4900, "unit": "nM"}
    ]}
  ]
}
